Data: publication PMC7954794, “Protein context shapes the specificity of SH3 domain-mediated interactions in vivo” (Nature Communications, 2021)

System: Abp1 PPIs
Assay: DHFR-PCA of Abp1 SH3-swapped baits (Fig. 2B-D, S2C, S2F);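 on Protein-protein interaction distance between Abp1 SH3-swapped baits, to ABP1: Euclidean distance between DHFR-PCA score profiles of the baits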;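 on Protein-protein interaction distance between Abp1 SH3-swapped baits, to BEM1-2: Euclidean distance between DHFR-PCA score profiles of the baits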;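 on Protein-protein interaction distance between Abp1 SH3-swapped baits, to BOI1: Euclidean distance between DHFR-PCA score profiles of the baits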;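 on Protein-protein interaction distance between Abp1 SH3-swapped baits, to BZZ1-1: Euclidean distance between DHFR-PCA score profiles of the baits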
Format: cell-based, Saccharomyces cerevisiae
Excerpt: Having determined that multiple PPIs require SH3s, we asked whether the latter establish PPI specificity independently from their host proteins by swapping domains (Fig. 2A). Using the second round of genome editing, we individually replaced Abp1 SH3 with the 27 yeast SH3s and 3 human Abp1 orthologs’ SH3s (CTTN, HCLS1, and DBNL, Fig. 2B). The reintroduction of its own SH3 (Abp1SH3 in Abp1) reconstitutes almost perfectly Abp1’s interaction profile (Kendall’s τ = 0.93, Fig. 2B). […] No homologous SH3 domain fully re-establishes the normal Abp1 PPI profile (Fig. 2B and Supplementary Fig. 2C). However, we observe a significant correlation (cophenetic correlation = 0.20, p value = 0.005, Fig. 2C) between the similarity of PPI profiles (Fig. 2B) and the sequence similarity of the SH3s. […] Nonetheless, a subset of SH3-dependent PPIs is only observed with the endogenous domain. For instance, Hua2 and App1, both well-characterized partners of Abp1[14],[18],[19], are only detected when Abp1 contains its own SH3 (WT or swapped via editing). A given SH3 may therefore not be fully replaceable with other paralogous or orthologous domains. This pattern is confirmed by cellular growth phenotypic analyses (Supplementary Fig. 2D, E). PPIs, SH3 sequence similarity, and growth profiles under stress conditions are correlated (Supplementary Fig. 2D, E). This relationship is particularly clear when analyzing growth on media supplemented with hygromycin.
The stuffing of YSC84 SH3 rendered the strain sterile and was therefore not used for this study as the assays require crosses. For genes containing two SH3s (BZZ1 and BEM1), a combination of this first stuffer with a second one ([…]) coding for a highly similar linker ([…]) was used, which allowed targeting each SH3 position independently. The two N-terminal domains of SLA1, which are separated by six nucleotides, were stuffed by a single stuffer. Cells containing pCAS were selected via the G418 resistance cassette from the plasmid on YPD plates (YPD + NAT 100 μg/ml (DHFR F[1,2] selection) + G418 200 µg/mL (Bioshop Canada)). Colonies were randomly selected and grown in YPD media without G418 to allow plasmid loss. The correct insertion of the stuffer was validated by PCR and Sanger sequencing. The SH3-swapped, -shuffled, and -mutated strains were constructed following a second CRISPR–Cas9 editing step with the same procedures. The stuffer sequences were targeted by specific gRNAs (one gRNA per stuffer) and replaced by PCR amplified specific SH3 (with 40 bp homology arms) or libraries of mutated SH3 domains for Deep Mutational Scanning (DMS) with 78 bp flanking homology regions. Validation of the SH3 domain insertions was done as we previously described except for DMS libraries (see below).
The overall DHFR-PCA pipeline is based on Tarassov et al.[43] and the procedures have also been published as a visualized protocol. The screens were performed with robotically manipulated pin tools (BM5-SC1, S&P Robotics Inc.). First, the preys were cherry-picked from 96-well plates to omnitrays in a 384 format on YPD + HPH solid media. Plates were then combined into the 1536 format on YPD + HPH. The array was constituted of 575 preys previously shown to interact physically with at least one SH3-containing protein as reported in BioGRID V3.4.16 along with 40 negative controls. The prey array comprised a border of control strains of two rows and two columns corresponding to the PPI between LSM8-DHFR F[1,2] and CDC39-DHFR F[3]. This double border was used to remove border effects. Preys are present in duplicate at a randomized position in the 1536 array (except for YAL041W which is present four times per array). Baits were crossed with two prey plates, resulting in four independent bait–prey tests for each PPI. Baits were grown in liquid YPD + NAT and then transferred on solid YPD + NAT omnitrays. They were then replicated on YPD + NAT omnitrays in 1536 array format. […]

[1] = number of PPIs, difference, Abp1 SH3-swapped with the listed SH3, Fig2D,S2F
[2] = Fig2B, bait ABP1, label = prey, Replicates 4

RVS167
Protein-protein interaction distance between Abp1 SH3-swapped baits, to ABP1 (Abp1 bait with swapped SH3, distance to bait with ABP1 SH3, sheet Fig2C): 9.548
Protein-protein interaction distance between Abp1 SH3-swapped baits, to BBC1 (distance to Abp1 bait with BBC1 SH3, sheet Fig2C): 9.304
Protein-protein interaction distance between Abp1 SH3-swapped baits, to BEM1-1 (distance to Abp1 bait with BEM1-1 SH3, sheet Fig2C): 14.67
Protein-protein interaction distance between Abp1 SH3-swapped baits, to BEM1-2 (distance to Abp1 bait with BEM1-2 SH3, sheet Fig2C): 33.63
Protein-protein interaction distance between Abp1 SH3-swapped baits, to BOI1 (distance to Abp1 bait with BOI1 SH3, sheet Fig2C): 11.58
Protein-protein interaction distance between Abp1 SH3-swapped baits, to BOI2 (distance to Abp1 bait with BOI2 SH3, sheet Fig2C): 15.22
Protein-protein interaction distance between Abp1 SH3-swapped baits, to BUD14 (distance to Abp1 bait with BUD14 SH3, sheet Fig2C): 18.02
Protein-protein interaction distance between Abp1 SH3-swapped baits, to BZZ1-1 (distance to Abp1 bait with BZZ1-1 SH3, sheet Fig2C): 5.914
Protein-protein interaction distance between Abp1 SH3-swapped baits, to BZZ1-2 (distance to Abp1 bait with BZZ1-2 SH3, sheet Fig2C): 11.17
Protein-protein interaction distance between Abp1 SH3-swapped baits, to CDC25 (distance to Abp1 bait with CDC25 SH3, sheet Fig2C): 27.4
Protein-protein interaction distance between Abp1 SH3-swapped baits, to CTTN (distance to Abp1 bait with CTTN SH3, sheet Fig2C): 12.4
Protein-protein interaction distance between Abp1 SH3-swapped baits, to CYK3 (distance to Abp1 bait with CYK3 SH3, sheet Fig2C): 28.09
Protein-protein interaction distance between Abp1 SH3-swapped baits, to DBNL (distance to Abp1 bait with DBNL SH3, sheet Fig2C): 5.554
Protein-protein interaction distance between Abp1 SH3-swapped baits, to FUS1 (distance to Abp1 bait with FUS1 SH3, sheet Fig2C): 19.5
Protein-protein interaction distance between Abp1 SH3-swapped baits, to HCLS1 (distance to Abp1 bait with HCLS1 SH3, sheet Fig2C): 7.638
Protein-protein interaction distance between Abp1 SH3-swapped baits, to HOF1 (distance to Abp1 bait with HOF1 SH3, sheet Fig2C): 32.19
Protein-protein interaction distance between Abp1 SH3-swapped baits, to HSE1 (distance to Abp1 bait with HSE1 SH3, sheet Fig2C): 7.315
Protein-protein interaction distance between Abp1 SH3-swapped baits, to LSB1 (distance to Abp1 bait with LSB1 SH3, sheet Fig2C): 7.392
Protein-protein interaction distance between Abp1 SH3-swapped baits, to LSB3 (distance to Abp1 bait with LSB3 SH3, sheet Fig2C): 7.852
Protein-protein interaction distance between Abp1 SH3-swapped baits, to MYO3 (distance to Abp1 bait with MYO3 SH3, sheet Fig2C): 9.049
Protein-protein interaction distance between Abp1 SH3-swapped baits, to MYO5 (distance to Abp1 bait with MYO5 SH3, sheet Fig2C): 7.689
Protein-protein interaction distance between Abp1 SH3-swapped baits, to NBP2 (distance to Abp1 bait with NBP2 SH3, sheet Fig2C): 17.22
Protein-protein interaction distance between Abp1 SH3-swapped baits, to PEX13 (distance to Abp1 bait with PEX13 SH3, sheet Fig2C): 4.587
Protein-protein interaction distance between Abp1 SH3-swapped baits, to PIN3 (distance to Abp1 bait with PIN3 SH3, sheet Fig2C): 5.294
Protein-protein interaction distance between Abp1 SH3-swapped baits, to RVS167 (distance to Abp1 bait with RVS167 SH3, sheet Fig2C): 0.00
Protein-protein interaction distance between Abp1 SH3-swapped baits, to SDC25 (distance to Abp1 bait with SDC25 SH3, sheet Fig2C): 34.37
Protein-protein interaction distance between Abp1 SH3-swapped baits, to SHO1 (distance to Abp1 bait with SHO1 SH3, sheet Fig2C): 6.815
Protein-protein interaction distance between Abp1 SH3-swapped baits, to SLA1-1 (distance to Abp1 bait with SLA1-1 SH3, sheet Fig2C): 30.09
Protein-protein interaction distance between Abp1 SH3-swapped baits, to SLA1-2 (distance to Abp1 bait with SLA1-2 SH3, sheet Fig2C): 19.9
Protein-protein interaction distance between Abp1 SH3-swapped baits, to SLA1-3 (distance to Abp1 bait with SLA1-3 SH3, sheet Fig2C): 7.698
Protein-protein interaction distance between Abp1 SH3-swapped baits, to YSC84 (distance to Abp1 bait with YSC84 SH3, sheet Fig2C): 8.283
PPIs gained by Abp1 - SH3-dependent PPIs gained by Abp1 [1]: 9
SH3-dependent PPIs - SH3-dependent PPIs gained by Abp1 [1]: 26
SH3-dependent PPIs gained by Abp1 (number of PPIs, Abp1 SH3-swapped with the listed SH3, DHFR-PCA, Fig2D,S2F): 5

YAL005C
medrep (log2 median colony size normalized to plate background) [2]: 5.43
medsize (median colony size) [2]: 6098
